Among the test systems are UACC-257; UACC-62; SW-620; TK-10; HL-60; KM12; SR; IGROV-1; A549; SN12C; HCT-15; SK-OV-3; HT-29; NCI-H23; SF-539; SNB-75; HOP-92.
Holding throughout (assay): NCI-60 cell line screen, 48 h

This is an account of results in ChEMBL document CHEMBL1201862, “PubChem BioAssay data set” (2004).

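96-well plates; 48 h exposure; 5 concentrations. Endpoints by linear interpolation between flanking doses. Not reached: highest tested concentration assigned. GI50 = concentration required for 50% inhibition of growth.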 The source made the active and inactive calls. Rule as the data show it: active = GI50 up to about 1.1 µM and inactive = higher.

For the compound `CCOC(=O)CC(=O)ON(C)C(C)=O`, the GI50 with UACC-257, in the test with UACC-62, in the test with SW-620, with TK-10, in the test with HL-60 and with KM12 was > 100 µM (inactive) in each case. Further, the GI50 in the test on SR is > 100 µM (inactive); in the test on IGROV-1, > 100 µM (inactive); in the test with A549 it was > 100 µM (inactive); in the test with SN12C, > 100 µM (inactive); in the test on HCT-15, more than 100 µM; in the test on SK-OV-3, > 100 µM (inactive). Moreover, the GI50 in the test with HT-29, in the test on NCI-H23 and in the test on SF-539 was > 100 µM (inactive) in each case.

For `COc1ccc(C2Oc3cc(OC)c(OC)cc3C2CCl)cc1OC` (stereo unspecified), the GI50 in the test on UACC-257 was > 100 µM (inactive); in the test with UACC-62, 25.6 µM (inactive); with SW-620, > 100 µM (inactive); in the test with SNB-75 it was 44.8 µM (inactive); in the test with TK-10, > 100 µM (inactive); with HL-60, > 100 µM (inactive). The GI50 in the test with KM12 is > 100 µM (inactive); with SR, > 100 µM (inactive); in the test with A549, > 100 µM (inactive); with SN12C it was > 100 µM (inactive); in the test with HCT-15, more than 100 µM; in the test with HOP-92 it was 74.3 µM (inactive). Further, the figures for the GI50 with NCI-H23 and in the test on SF-539 were > 10 µM (inactive) and > 100 µM (inactive), respectively.

On to `Cc1cccc(NC(=O)c2c(N)[n+]([O-])c3ccccc3[n+]2[O-])c1`, for which the GI50 was 11.3 µM (inactive) with UACC-257; 8.38 µM (inactive) with SW-620; 13 µM (inactive) with SNB-75; 8.73 µM (inactive) with HL-60; 14.9 µM (inactive) in the test with KM12; 10.9 µM (inactive) in the test on SR. The GI50 with IGROV-1 is 5.11 µM (inactive); in the test on A549, 16.1 µM (inactive); in the test on SN12C, 4.85 µM (inactive); with SK-OV-3, 21.1 µM (inactive); with HOP-92, 15.2 µM (inactive); in the test on HT-29, 13.7 µM (inactive). In addition, the GI50 is 9.68 µM (inactive) with NCI-H23 and 5.05 µM (inactive) in the test with SF-539.

Regarding `N=C(N)NS(=O)(=O)c1ccc(NCCc2c3ccccc3nc3ccccc23)cc1`, the GI50 in the test with UACC-257 is 52.5 µM (inactive); in the test on SW-620, > 100 µM (inactive); with SNB-75, > 100 µM (inactive); in the test on TK-10 it was > 100 µM (inactive); in the test with HL-60 it was 19.4 µM (inactive); in the test on KM12, > 100 µM (inactive). Moreover, the GI50 in the test on SR is 33.9 µM (inactive); in the test with IGROV-1 it was > 100 µM (inactive); in the test on A549 it was > 100 µM (inactive); in the test on SN12C, > 100 µM (inactive); in the test on HCT-15, more than 100 µM; with SK-OV-3, > 100 µM (inactive). In addition, the GI50 is > 100 µM (inactive) with HOP-92, 64.4 µM (inactive) with HT-29, > 10 µM (inactive) with NCI-H23 and > 100 µM (inactive) in the test with SF-539.

Turning to `CCC12CCCN(Cc3ccccc3)C1c1c(n(C)c3ccccc13)C(CO)C2` (stereo unspecified), the GI50 was 48.6 µM (inactive) in the test on UACC-257; 51.3 µM (inactive) in the test on UACC-62; 35.6 µM (inactive) with SW-620; 64.9 µM (inactive) in the test on TK-10; 43.4 µM (inactive) in the test with HL-60; 40.4 µM (inactive) in the test with KM12. In addition, the GI50 with SR was 25.5 µM (inactive); with IGROV-1, 38.5 µM (inactive); in the test with A549, 81.8 µM (inactive); in the test with SN12C it was 42.6 µM (inactive); with HCT-15, 38.3 µM; in the test on SK-OV-3, 74.1 µM (inactive). Besides, the GI50 in the test with HOP-92 is 33.4 µM (inactive); in the test with HT-29, 17.9 µM (inactive); in the test on NCI-H23, 52.2 µM (inactive); in the test on SF-539, 37.6 µM (inactive).

Turning to `O=C(CC1(O)C(=O)Nc2c(Cl)cc(Cl)cc21)c1ccc2ccccc2c1` (stereo unspecified), the GI50 was 12.6 µM (inactive) in the test on UACC-257; 3.55 µM (inactive) in the test on UACC-62; 3.66 µM (inactive) in the test on SW-620; 3.99 µM (inactive) in the test on SNB-75; 14.1 µM (inactive) in the test with TK-10; 3.18 µM (inactive) with HL-60. Further, the GI50 is 5.92 µM (inactive) in the test on KM12; 10.9 µM (inactive) in the test on IGROV-1; 5.2 µM (inactive) in the test on A549; 10.4 µM (inactive) with SN12C; 3.62 µM in the test with HCT-15; 10.4 µM (inactive) in the test on SK-OV-3. The GI50 in the test on HOP-92 was 21.4 µM (inactive); in the test on HT-29, 5.25 µM (inactive); with NCI-H23 it was 7.33 µM (inactive); with SF-539, 8.17 µM (inactive).

For the compound `CCOC(=O)C1N(S(=O)(=O)c2ccc(C)cc2)CCC12C(c1ccc(OC)c(OC)c1)=Nc1ccccc12` (stereo unspecified), the GI50 in the test on UACC-257 is > 100 µM (inactive); with UACC-62, > 100 µM (inactive); with SW-620, > 100 µM (inactive); with SNB-75, 35.5 µM (inactive); in the test with TK-10, > 100 µM (inactive); in the test with HL-60, > 100 µM (inactive). The GI50 in the test on KM12 was > 100 µM (inactive); in the test on IGROV-1 it was > 100 µM (inactive); in the test with A549 it was > 100 µM (inactive); in the test on SN12C, > 100 µM (inactive); in the test on SK-OV-3, > 100 µM (inactive); in the test on HOP-92, 28.5 µM (inactive). Further, the GI50 in the test with HT-29, in the test with NCI-H23 and in the test on SF-539 was > 100 µM (inactive) throughout.

In the case of `COc1cc2ccc(CC#N)cc2cc1OC`, the GI50 in the test on UACC-257, in the test on SW-620, in the test on TK-10, in the test with HL-60, in the test with KM12 and in the test on SR was > 100 µM (inactive) in each case. The GI50 was > 100 µM (inactive) in the test with A549; > 100 µM (inactive) with SN12C; > 100 µM (inactive) in the test on SK-OV-3; 71.1 µM (inactive) in the test on HOP-92; > 100 µM (inactive) in the test with HT-29; > 100 µM (inactive) with NCI-H23. Further, the GI50 in the test with SF-539 is > 100 µM (inactive).

In the case of `CCCCN(CCCC)c1c([N+](=O)[O-])c(=O)nc2ccccn12`, the GI50 with UACC-62 is 36.7 µM (inactive); with SW-620 it was 36.2 µM (inactive); with SNB-75 it was 30.8 µM (inactive); in the test on TK-10, 46.9 µM (inactive); in the test with KM12, 31.3 µM (inactive); in the test on SR it was 38.5 µM (inactive). For the same compound, the GI50 in the test with IGROV-1 was > 100 µM (inactive); with A549, 33.7 µM (inactive); with SN12C, 34.1 µM (inactive); with HCT-15 it was 39.4 µM; in the test with SK-OV-3, > 100 µM (inactive); in the test on HOP-92 it was 61.5 µM (inactive). The GI50 in the test on HT-29 was 38.1 µM (inactive); in the test on NCI-H23, 30.8 µM (inactive); with SF-539, 31.4 µM (inactive).

With `CC(=O)NC1=C(NCc2ccc(Cl)cc2)C(=O)c2ccccc2C1=O`, the GI50 in the test on UACC-257 was 6.17 µM (inactive); with UACC-62, 2.61 µM (inactive); in the test on SW-620, 7 µM (inactive); in the test on SNB-75, 7.08 µM (inactive); in the test with TK-10 it was 8.24 µM (inactive); in the test on HL-60 it was 1.39 µM (inactive). The GI50 in the test on KM12 was 8.17 µM (inactive); in the test with SR it was 8 µM (inactive); in the test on IGROV-1, 11.3 µM (inactive); with A549, 12.5 µM (inactive); in the test on SN12C it was 13.9 µM (inactive); in the test on HCT-15 it was 5.57 µM. The GI50 with SK-OV-3 is 18.2 µM (inactive); with HT-29, 17.8 µM (inactive); in the test with NCI-H23, 6.76 µM (inactive); in the test with SF-539, 4.41 µM (inactive).

Consider `Cc1cc(C)nc(NS(=O)(=O)c2ccc(NC(=O)c3ccc(Cl)c4c(Nc5ccc(S(=O)(=O)N=C(N)N)cc5)c5ccccc5nc34)cc2)n1`, for which the GI50 in the test with UACC-257 is 51.8 µM (inactive); in the test on UACC-62, 36.3 µM (inactive); in the test with SW-620 it was 17.4 µM (inactive); in the test with SNB-75, > 100 µM (inactive); in the test with TK-10, 33.9 µM (inactive); in the test on HL-60, 3.72 µM (inactive). The GI50 in the test on KM12 was 37.9 µM (inactive); in the test on IGROV-1 it was 63.8 µM (inactive); in the test on A549 it was > 100 µM (inactive); with SN12C it was 20.8 µM (inactive); in the test with SK-OV-3, > 100 µM (inactive); in the test with HOP-92, 25.5 µM (inactive). In addition, the GI50 is 16.4 µM (inactive) in the test with HT-29, 3.91 µM (inactive) with NCI-H23 and 34 µM (inactive) with SF-539.

In the case of `CC1(c2cccc3c2C2(O)C=CC4(CCC32)OCCO4)OCCO1` (stereo unspecified), the GI50 in the test on UACC-257, with UACC-62, in the test with SW-620, in the test on SNB-75, with TK-10 and in the test on HL-60 was > 100 µM (inactive) each time. Moreover, the GI50 was > 100 µM (inactive) in the test on KM12; > 100 µM (inactive) in the test with IGROV-1; > 100 µM (inactive) in the test on A549; > 100 µM (inactive) in the test with SN12C; more than 100 µM in the test on HCT-15; > 100 µM (inactive) in the test on SK-OV-3. The GI50 in the test with HT-29, in the test on NCI-H23 and with SF-539 was > 100 µM (inactive) in each case.

For `CC1=C(CO)C(=O)OC(C(C)C2CCC3C4CC5OC56C(O)C(N5CC5)=CC(=O)C6(C)C4CCC23C)C1` (stereo unspecified), the GI50 is 11.9 µM (inactive) in the test with UACC-257; 10.5 µM (inactive) in the test with UACC-62; 2.56 µM (inactive) in the test on SW-620; 4.01 µM (inactive) in the test on SNB-75; 10.1 µM (inactive) with TK-10; 1.61 µM (inactive) with HL-60. Besides, the GI50 is 2.02 µM (inactive) in the test on KM12; 2.77 µM (inactive) in the test with SR; 3.47 µM (inactive) in the test on IGROV-1; 10.4 µM (inactive) with A549; 6.58 µM (inactive) in the test with SN12C; 3.46 µM in the test on HCT-15. Moreover, the GI50 in the test on HOP-92 was 5.33 µM (inactive); in the test on HT-29, 3.94 µM (inactive); with NCI-H23, 2.35 µM (inactive); in the test on SF-539, 3.66 µM (inactive).
